In patent US8754047B2, “Peptide compositions and methods of use” (The Research Foundation for the State University of New York, priority 2008, dated 2014):
Positions of bridges follow the written chain, without caps; N, C: chain ends. Residues, ends and D or L forms follow the SMILES beside them.

Experiments:
in vitro = conditions: human, NCM460 normal colon epithelial cells
Protocol: After treatment with various concentrations (6.25 μM, 12.5 μM, 25 μM, 50 μM, 100 μM, or 200 μM) of test peptide for 24 h, cells were stained with MTT (3-(4,5-Dimethyl-2-thiazolyl)-2,5-diphenyl-2H-tetrazolium bromide, from Sigma-Aldrich) following the instructions of the manufacturer. […] Cells that are alive convert MTT into formazan in their active mitochondria and appear dark purple; dead cells are not stained by MTT and appear colorless.

[1] = test system: SW480 human colon cancer xenografts; experiment: SW480 human colon cancer xenografts in nude mice, tumor volume; assay type: in vivo; conditions: 500 μg/day intraperitoneally for 19 days
Protocol: (§1) Xenografts were generated as described in FIG. 3A-B and Example 3 except where noted. Each animal had two xenografts, one on its right flank and one on the left. In these studies, the effect of two doses of YJB01, 100 μg and 500 μg per animal were evaluated. The doses were administrated intraperitoneally once a day dissolved in phosphate buffered saline (PBS). Control animals were injected with PBS. Tumor volume was determined as described in Example 3. Tumor volume is expressed as mean±SEM.
as §1, with “the” for “FIG. 3A-B and”
Xenografts were generated as described in the Example 3 except that 8 Balb/c nude mice in each group were used in this experiment. Nude mice bearing SW480 xenografts were treated with 500 μg/day of YJB02 for 19 days. The doses were administrated intraperitoneally once a day dissolved in phosphate buffered saline (PBS). Control animals were treated with PBS.
Tumor volume was determined as described in Example 3. Tumor volume was monitored and graphed as set forth in FIG. 9A, and is expressed as mean±SEM.

SW480 tumor cells [2] = experiment: Ki-67 staining of xenograft tumor tissue for cell proliferation; assay type: in vivo, nude mice; conditions: tumors of mice treated 500 μg/day for 19 days
Protocol: (§2) Tumor tissue from the mice treated with PBS or YJB02 as described in Example 8 were utilized in this experiment. Cell death was determined by terminal deoxynucleotidyl transferase dUTP nick end labeling (TUNEL) staining sections of paraffin embedded tissues, as previously described (Ouyang, N., Williams, J. L., Tsioulias, G. J., Gao, J., Iatropoulos, M. J., Kopelovich, L., Kashfi, K., and Rigas, B. 2006. Nitric oxide-donating aspirin prevents pancreatic cancer in a hamster tumor model. Cancer Res 66:4503-4511). Cell proliferation was determined by staining sections of paraffin embedded tissues for Ki-67 (Santa Cruz Biotechnology, Calif.) as previously described (Id.)
Tissue slides from control or YJB02 treated tumors were stained with anti-Ki67 antibody (Santa Cruz Biotechnology, Santa Cruz, Calif., US). As shown in the lower panel of FIG. 10, YJB02 inhibited tumor cell proliferation. […] Slides were counter-stained with hematoxylin.

MCF7 breast cancer cells = conditions: read-out: IC50s, MCF7; inhibits cell growth by 50% at 24 hours of exposure; MTT or cell Titer-Glo
Protocol: (§3) 10,000 HT29 or SW480 human colon cancer cells, BxPC-3 human pancreatic cancer cells, and MCF7 and MDA-MB-231 breast cancer cells were obtained from American Type Culture Collection (ATTC), Manassas, Va., and were seeded in separate 96-well plates. After treatment with various concentrations (6.25 μM, 12.5 μM, 25 μM, 50 μM, 100 μM, or 200 μM) of test peptide for 24 h, cells were stained with MTT (3-(4,5-Dimethyl-2-thiazolyl)-2,5-diphenyl-2H-tetrazolium bromide, from Sigma-Aldrich) following the instructions of the manufacturer. Before dissolving MTT in SDS, the HT29 and SW480 cells were photographed using a digital camera connected with a phase-contrast microscope. (FIG. 2A1-8, and FIG. 2B1-6). Cells that are alive convert MTT into formazan in their active mitochondria and appear dark purple; dead cells are not stained by MTT and appear colorless.
(§4) The IC50 is the concentration of the test agent that inhibits cell growth by 50% at 24 hours of exposure. IC50s were determined using the MTT assay or using the cell Titer-Glo method and following the instructions of the manufacturer ([…]). […] (Sun, Y., and Rigas, B., (2008), Cancer Res., 68(20): 8269-8277).

[3] = test system: BxPC-3 human pancreatic cancer cells; conditions: read-out: IC50s, BxPC3; inhibits cell growth by 50% at 24 hours of exposure; MTT or cell Titer-Glo
Protocol: as §3, §4

[4] = test system: MDA-MB-231 breast cancer cells; conditions: read-out: IC50s, MDA-MB-231; inhibits cell growth by 50% at 24 hours of exposure; MTT or cell Titer-Glo
Protocol: as §3, §4

[5] = test system: SW480 human colon cancer cells; experiment: In vitro cell viability assay by MTT / cell Titer-Glo, SW480
Protocol: as §3, §4
The effect of peptide YJB02 on SW480 colon cancer cells was compared to the effect of peptide YJB02 on the normal human colon epithelial cell line NCM460. […] The viability was determined as described in Example 2.

SW480 tumor cells [6] = experiment: TUNEL staining of xenograft tumor tissue for apoptosis; assay type: in vivo, nude mice; conditions: tumors of mice treated 500 μg/day for 19 days
Protocol: as §2
Slides were stained with TUNEL kit for apoptosis (available from Roche Applied Science, Indianapolis, Ind., US).

thioredoxin reductase [7] = target: T1, thioredoxin reductase (Rattus norvegicus, UniProt O89049); experiment: biochemical
T1 sequence (O89049 1-499): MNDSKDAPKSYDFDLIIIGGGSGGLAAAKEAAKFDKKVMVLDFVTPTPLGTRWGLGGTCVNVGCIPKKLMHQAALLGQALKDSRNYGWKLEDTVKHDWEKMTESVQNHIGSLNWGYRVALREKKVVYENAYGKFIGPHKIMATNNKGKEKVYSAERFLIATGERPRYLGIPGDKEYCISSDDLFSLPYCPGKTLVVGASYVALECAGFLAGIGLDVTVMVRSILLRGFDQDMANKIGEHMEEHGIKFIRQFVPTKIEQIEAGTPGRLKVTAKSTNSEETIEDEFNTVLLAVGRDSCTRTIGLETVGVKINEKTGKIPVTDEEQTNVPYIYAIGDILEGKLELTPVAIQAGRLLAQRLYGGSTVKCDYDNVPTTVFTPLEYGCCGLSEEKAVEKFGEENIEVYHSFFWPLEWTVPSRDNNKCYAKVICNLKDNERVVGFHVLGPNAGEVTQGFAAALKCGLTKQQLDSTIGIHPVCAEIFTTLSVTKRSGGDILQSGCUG
Protocol: (§5) The activity was determined based on the change in absorbance (ΔA412) per minute (ΔA412/min).

thioredoxin reductase [8] = target: T1, thioredoxin reductase
Protocol: as §5

CC[C@H](C)[C@H](NC(=O)[C@H](CCCCN)NC(=O)[C@@H](NC(=O)[C@H](CCC(N)=O)NC(=O)[C@H](CCCNC(=N)N)NC(=O)[C@@H]1CCCN1C(=O)[C@@H](NC(=O)[C@@H]1CSSC[C@H](NC(=O)[C@@H](NC(=O)CN)[C@@H](C)O)C(=O)N[C@@H](C(C)C)C(=O)N[C@@H](CC(N)=O)C(=O)N[C@@H](C(C)C)C(=O)NCC(=O)N1)[C@@H](C)CC)[C@@H](C)CC)C(=O)N[C@@H](Cc1c[nH]c2ccccc12)C(=O)N[C@@H](Cc1ccccc1)C(=O)N[C@@H](CCC(N)=O)C(=O)N[C@@H](CC(N)=O)C(=O)N[C@@H](CCCNC(=N)N)C(=O)N[C@@H](CCCNC(=N)N)C(=O)N[C@@H](CCSC)C(=O)N[C@@H](CCCCN)C(=O)N[C@@H](Cc1c[nH]c2ccccc12)C(=O)N[C@@H](CCCCN)C(=O)N[C@@H](CCCCN)C(=O)O [YJB02] (H-GTCVNVGCIPRQIKIWFQNRRMKWKK-OH; disulfide 3-8; N-terminus and C-terminus assumed)
viability at 24 h, 200 μmol/L (in vitro): 75% | tumor volume ([1]; day 19, control 635 mm^3): 207 mm^3 | reduction in SW480 tumor growth ([1]; vs control): 67% | Ki67 (+) signals in tumor tissue (SW480 tumor cells [2]): dramatically decreased | IC50 (MCF7 breast cancer cells): 213 µM | IC50 [3]: 36 to 76 µM | IC50 [4]: 243 µM | SW480 cells remained viable ([5]; 200 μmol/L, 24-hour treatment): 20% | IC50 ([5]; read-out: IC50s, SW480, inhibits cell growth by 50% at 24 hours of exposure, MTT or cell Titer-Glo): < 12.5 µM | TUNEL (+) cells in tumor tissue (SW480 tumor cells [6]): induced more TUNEL (+) cells than control tumors | IC50 (thioredoxin reductase [7]): 0.036 µM | thioredoxin reductase activity, ΔA412/min (thioredoxin reductase [8]): decreased by YJB02 in a dose dependent manner
